According to patent US20120077732A1, “CYCLIC PEPTIDES AND USES THEREOF” (SYDNEY WEST AREA HEALTH SERVICE, priority 2008, published 2012):
≈ marks a conversion by molar mass, not a printed value. Where two headings read alike, the source gives them in different places.

What was measured:
2B4.11 hybridoma = assay: Antigen presentation assay (IL-2 produced in response to antigen); format: cell-based; settings: for IL2 %: 50 μM, relative to DMSO control (100%); for IL-2 production, % of the solvent only control value: 0.5% DMSO, ±SD
in vitro = format: cell-based
Experimental: (§1) First, to determine if the activity of C1 was due to toxicity, 2B4.11 T-cells (1×10^5) were cultured in microtiter wells in the presence of the peptide conjugates at 50 μM. After 20 hours, 30 μL were removed and cells assessed for viability by trypan blue staining. The remaining culture was then pulsed with 0.5 μCi [^3H] thymidine for 5 h, harvested, and quantitated for [^3H] thymidine uptake to assess cellular proliferation.

2B4.11 T-cells = assay: in vitro; format: cell-based; settings: 50 μM, relative to 0.5% DMSO control; ±SD
Experimental: as §1

2B4.11 cells [1] = assay: T-cell activation with H57-597 antibody (TCRβ chain crosslinking), IL-2 production; format: cell-based; settings: H57-597 0.5 μg/mL with LK cells; 50 μM; relative to DMSO control; ±SD
Experimental: To analyse the mode of action of C1, T-cells were activated using 2C11-145 and H57-597 antibodies. The H57-597 antibody is directed against the TCRβ chain, and when administered at sub-optimal doses in conjunction with accessory cells (LK35.2), is capable of activating T cells. […] C1 was added to give a final reaction volume of 250 μL at 50 μM and 0.5% DMSO.

2B4.11 cells [2] = assay: T-cell activation with 2C11-145 antibody (CD3 crosslinking), IL-2 production; format: cell-based; settings: CD3 crosslinking with 2C11-145; 50 μM; relative to DMSO control; ±SD
Experimental: To analyse the mode of action of C1, T-cells were activated using 2C11-145 and H57-597 antibodies. The H57-597 antibody is directed against the TCRβ chain, and when administered at sub-optimal doses in conjunction with accessory cells (LK35.2), is capable of activating T cells. […] C1 was added to give a final reaction volume of 250 μL at 50 μM and 0.5% DMSO. […] T cells were also activated using the 2C11-145 antibody to crosslink the CD3 chains of the TCR, thereby bypassing the antigen recognition sub-units of the TCRα/β.

2B4.11 cells [3] = format: cell-based; settings: 50 μM
Wistar rats = assay: Adjuvant-induced arthritis model; format: in vivo; settings: given subcutaneously, four daily injections of 6 mg at onset of arthritis
trypsin = format: in vitro ADME
Experimental: The effect of trypsin on C1 and CP was studied by incubating each peptide (1 μg/μl) in methanol and ammonium bicarbonate (0.1M) with 125 ng/μl of trypsin at pH 8 and 37° C. The effect of trypsin after incubation with CP and C1 was followed by mass spectrometry. […]

[4] = format: physicochemical
Experimental: pH stability was also investigated. C1 (2 μg/μl) was incubated at 30° C. for three days at pH 3, 7 and 10. Samples were taken after each day and analysed by mass spectrometry.

S. aureus = format: cell-based
Experimental: The synthetic C1 peptide and its analogues were tested using Standard disk susceptibility testing by National Committee for […] Laboratory Standards (NCCLS) against, S. aureus, E. coli and S. pneumoniae. […]

[5] = system: allergic mice (OVA model); format: in vivo; settings: 200 μg subcutaneous; compared to historical OVA/OVA mice
Experimental: The effect on the inflammatory response of the 200 μg dose and subcutaneous route of administration of cyclic C1 peptide determined in Example 8 was tested with the OVA (ovalbumin) model (Temelkovski, et al. (1998); Foster, et al. (2000); Asquith et al (2008)) according to the following study design. At the endpoint mice were euthanased and BALF was obtained by cannulating the trachea and flushing the airways with two 0.8 ml volumes of Hank's Balanced Salt Solution (HBSS). Recovered cells were treated with erythrocyte lysis buffer, cytospins prepared and stained with May-Grunwald Giemsa and differential leukocyte counts performed based on morphological criteria (min 200 cells counted/slide). Statistical analysis was performed using a student's unpaired t-test. Results were compared to historical data.

allergic mice (OVA/OVA) [6] = assay: Allergic airways disease (OVA) model: inflammatory cells in BALF; format: in vivo; parameters: key to Airway lymphocytes / Airway eosinophils / Airway macrophages / Airway inflammatory cells / Airway neutrophils: nc: no change; ↑: increase; ↓: decrease
allergic mice (OVA/OVA) [7] = assay: Allergic airways disease (OVA) model: local and systemic OVA-specific cytokine production; format: in vivo; parameters: key to Spleen OVA-stimulated IL-5 / Spleen OVA-stimulated IL-13 / LN OVA-stimulated IL-5 / LNOVA stimulated IL-13: nc: no change; ↑: increase; ↓: decrease
allergic mice (OVA/OVA) [8] = assay: Allergic airways disease (OVA) model: airways hyperreactivity to methacholine; format: in vivo; parameters: key to Airway Resistance / Airway Compliance: nc: no change; ↑: increase; ↓: decrease
NOD mice = assay: Treatment of NOD mice, blood glucose level / diabetes; format: in vivo; settings: i.p. injections of 0.1 mg
Experimental: NOD mice were fasted for at least 1.5 h prior to blood glucose level (BGL) measurements. In the morning, all mice were treated with intraperitoneal (i.p.) injections of 0.1 mg C1 and BGLs were taken. Control mice received 0.2 mL of water.

2B4 cells = assay: T-cell activation with PMA and ionomycin, IL-2 production; settings: PMA 40 ng/mL + ionomycin 5 μg/mL; 50 μM; ±SD
Experimental: Further, T-cells were activated using PMA and ionomycin stimulation. The method employed to activate T cells utilized the protein kinase C activating PMA in combination with the calcium ionophore, ionomycin. In combination, PMA/ionomycin effectively activate T cells downstream from the TCR. Phorbol 12-myristate 13-acetate (PMA) (40 ng/mL) and ionomycin (5 μg/mL) were added to 2B4 cells (5×10^4) and incubated with each CP-conjugate at 50 μM in 0.5% DMSO in 96-well, round bottom microtiter plates for 24 h at 37° C. with 5% CO2 in a total volume of 250 μL. Supernatants were then collected and analysed for IL-2 production. All CP-conjugates were tested simultaneously in triplicate wells, and each experiment was performed on three separate occasions.

[9] = 200 μg s.c. during challenge, allergic mice
[10] = 200 μg/100 μl s.c. during OVA challenge, compared to OVA/OVA alone

CC(C)C[C@@H]1NC(=O)[C@@H](CC(C)C)NC(=O)[C@H](CCCNC(=N)N)NC(=O)[C@@H](CC(C)C)NC(=O)CNC(=O)[C@@H](C(C)C)NC(=O)[C@H](CCCCN)NC(=O)[C@@H](CC(C)C)NC(=O)[C@H](CC(C)C)NC(=O)[C@@H](CC(C)C)NC1=O [C1, LDRLDLLDLLDKVDG]
% Ave IL2 Production (2B4.11 hybridoma; average, Tables 1-3): 17% | IL2 % (2B4.11 hybridoma; fifth IL2 column (individual experiment in triplicate)): 15.6% | IL2 % (2B4.11 hybridoma; fourth IL2 column (individual experiment in triplicate)): 18.9% | IL-2 production, % of the solvent only control value (2B4.11 hybridoma; peptide 25 μM): 59.69%±23.54 | IL-2 production, % of the solvent only control value (2B4.11 hybridoma; peptide 50 μM): 7.73%±4.97 | viability at 20 h, 50 µM (in vitro): 86.6% | cellular proliferation ([3H] thymidine uptake) (2B4.11 T-cells): 62.56%±14.25 | IL-2 production (2B4.11 cells [1]): 54.02%+/−9.32 | % IL-2 production (2B4.11 cells [2]): 50.00%+/−15.79 | IL-2 production (2B4.11 cells [3]): 71.42%+/−14.275D | effect in reducing inflammation (total foot swelling) (Wistar rats): comparable effect to cyclosporin | stability without trypsin, 3 hours (Mass spectroscopy-MS) (trypsin): No degradation product | stability without trypsin, 24 hours (MS) (trypsin): No degradation product | pH range over which stable [4]: 1-11 pH | MIC against S. aureus (S. aureus): 100 µg/mL (≈ 89.3 µM) | antimicrobial activity, S. aureus (S. aureus; peptide 10 μg/ml): −ve | antimicrobial activity, S. aureus (S. aureus; peptide 100 μg/ml): +ve | antimicrobial activity, S. aureus (S. aureus; peptide 1000 μg/ml): +ve | eosinophils in BALF [5]: decrease | macrophages in BALF [5]: significant reduction | total inflammatory cells in BALF [5]: reduction | eosinophils in BALF (allergic mice (OVA/OVA) [6]; [9]): decrease | total inflammatory cell counts in bronchoalveolar lavage fluid (BALF) (allergic mice (OVA/OVA) [6]; [9]): significantly decreased | Airway eosinophils (allergic mice (OVA/OVA) [6]; [10]): ↓ | Airway inflammatory cells (allergic mice (OVA/OVA) [6]; [10]): ↓ | Airway lymphocytes (allergic mice (OVA/OVA) [6]; [10]): nc | Airway macrophages (allergic mice (OVA/OVA) [6]; [10]): nc | Airway neutrophils (allergic mice (OVA/OVA) [6]; [10]): nc | locally produced (peribronchial lymph node derived) IL-5 (allergic mice (OVA/OVA) [7]; [9]): significant decrease | locally produced (peribronchial lymph node derived) IL-13 (allergic mice (OVA/OVA) [7]; [9]): significant decrease | systemic (spleen derived) IL-5 (allergic mice (OVA/OVA) [7]; [9]): significant decrease | systemic (spleen derived) IL-13 (allergic mice (OVA/OVA) [7]; [9]): significant decrease | LN OVA-stimulated IL-5 (allergic mice (OVA/OVA) [7]; [10]): ↓ | LNOVA stimulated IL-13 (allergic mice (OVA/OVA) [7]; [10]): ↓ | Spleen OVA-stimulated IL-5 (allergic mice (OVA/OVA) [7]; [10]): ↓ | Spleen OVA-stimulated IL-13 (allergic mice (OVA/OVA) [7]; [10]): ↓ | airway resistance in response to methacholine challenge (allergic mice (OVA/OVA) [8]; [9]): no significant effect | dynamic compliance in response to methacholine challenge (allergic mice (OVA/OVA) [8]; [9]): no significant effect | Airway Compliance (allergic mice (OVA/OVA) [8]; [10]): ↑ | Airway Resistance (allergic mice (OVA/OVA) [8]; [10]): nc | blood glucose level control versus control group (NOD mice): more tightly controlled | mice that developed diabetes (BGL higher than 15 mM on two consecutive days) (NOD mice; preliminary results, control 7/21): 2/7 | IL-2 production relative to the DMSO control (2B4 cells): 62.83%+/−17.60
